Non-standard residues stand in square brackets, D forms with d. Residues, ends and D or L forms follow the SMILES beside them. No end group written: not given here. *: point of attachment. Biotin = O=C1N[C@H]2[C@H](CS[C@H]2CCCCC(=O)*)N1; βAla = NCCC(=O)O
How the values were obtained:
[1] = biological target: T1, hERG channel (Homo sapiens, UniProt Q12809); experiment: Predictor hERG fluorescence polarization assay; format: binding; settings: for IC50 at 4 h: human, Predictor hERG Membrane (Invitrogen kit)
T1 construct: purchased Invitrogen
Description: This study was conducted using the Predictor hERG Fluorescence Polarization Assay Kit purchased from Invitrogen. The kit comprises Predictor hERG Tracer Red, Predictor hERG Membrane, Predictor hERG FP Assay Buffer, and E-4031 as the positive control. The Predictor hERG Tracer Red was diluted to prepare a 4 nM tracer working solution, while the stock solution of E-4031 was diluted to a 120 μM E-4031 working solution. Subsequently, serial dilutions of E-4031 were prepared to serve as the reference compound. Test peptides were subjected to gradient dilution to generate solutions with 6 concentration gradients. For the assay procedure, buffer or compound solution was first added to the assay plate, followed by the addition of membrane and the tracer. After incubating the assay plate at 25 °C for 4 h, fluorescence polarization (FP) values (mp values) were measured using an EnVision microplate reader (PerkinElmer) equipped with a set of polarized filters. The half-maximal inhibitory concentration (IC50) of active compounds was determined using GraphPad Prism software.

[2] = biological target: SARS-CoV-2 RBD; experiment: MST binding affinity to RBD; settings: for Kd: MST, 50 nM labeled protein, 100 mM potassium phosphate buffer pH 7.0
Description: (§1) MST assay was used to analyze the binding ability of peptides 1–5 to RBD and NRP1. Specifically, RBD and NRP1 proteins were labeled using a lysine (Lys) labeling kit, respectively, and their final concentrations were adjusted to 50 nM. The peptides were serially diluted in a 1:1 gradient starting from an initial concentration of 12.5 μM. Subsequently, the labeled proteins were mixed with the diluted peptides in 100 mM potassium phosphate buffer (pH 7.0). After incubation at room temperature for 5 min, the mixture was loaded into standard MST glass capillaries. Detection was performed using a Monolith NT.115 instrument with the MST power set to 50% and the LED power set to 20%. The experiment was independently repeated three times.

[3] = biological target: T2, NRP1 (Homo sapiens, UniProt O14786); experiment: MST binding affinity to NRP1
T2 construct: purchased Abcam
Description: as §1

[4] = system: SARS-CoV-2 Omicron XBB.1.5 pseudovirus; settings: 3.2 µM
[5] = mice, 1 and 5 mg/kg intranasal
[6] = system: A549 cells; experiment: MTT cytotoxicity assay; format: cell-based, human; settings: 100 μM, 48 h
Description: A549 cells ([…], catalog number: PCS-300-010) were purchased from the American Type Culture Collection (ATCC, Manassas, VA, United States). The cells were cultured in Airway Epithelial Cell Basal Medium (ATCC, catalog number: PCS-300-030) supplemented with Bronchial/Tracheal Epithelial Cell Growth Kit (ATCC, catalog number: PCS-300-040) and incubated in a 37 °C incubator with 5% CO2. Then, cells were seeded into 96-well plates at a density of 5 × 10^4 cells per well and incubated overnight at 37 °C with 5% CO2. Subsequently, cells were treated with 100 μM peptides 1–5 for 48 h. After treatment, MTT stock solution (0.5 mg/mL) was added to each well, followed by additional 4-h incubation. Finally, the absorbance signal was measured at 570 nm using a microplate reader.

[7] = system: live SARS-CoV-2 Omicron XBB.1.5 strain; design: species or system K18-hACE2 mice; settings: mouse, in vivo

T1 sequence (Q12809 whole entry): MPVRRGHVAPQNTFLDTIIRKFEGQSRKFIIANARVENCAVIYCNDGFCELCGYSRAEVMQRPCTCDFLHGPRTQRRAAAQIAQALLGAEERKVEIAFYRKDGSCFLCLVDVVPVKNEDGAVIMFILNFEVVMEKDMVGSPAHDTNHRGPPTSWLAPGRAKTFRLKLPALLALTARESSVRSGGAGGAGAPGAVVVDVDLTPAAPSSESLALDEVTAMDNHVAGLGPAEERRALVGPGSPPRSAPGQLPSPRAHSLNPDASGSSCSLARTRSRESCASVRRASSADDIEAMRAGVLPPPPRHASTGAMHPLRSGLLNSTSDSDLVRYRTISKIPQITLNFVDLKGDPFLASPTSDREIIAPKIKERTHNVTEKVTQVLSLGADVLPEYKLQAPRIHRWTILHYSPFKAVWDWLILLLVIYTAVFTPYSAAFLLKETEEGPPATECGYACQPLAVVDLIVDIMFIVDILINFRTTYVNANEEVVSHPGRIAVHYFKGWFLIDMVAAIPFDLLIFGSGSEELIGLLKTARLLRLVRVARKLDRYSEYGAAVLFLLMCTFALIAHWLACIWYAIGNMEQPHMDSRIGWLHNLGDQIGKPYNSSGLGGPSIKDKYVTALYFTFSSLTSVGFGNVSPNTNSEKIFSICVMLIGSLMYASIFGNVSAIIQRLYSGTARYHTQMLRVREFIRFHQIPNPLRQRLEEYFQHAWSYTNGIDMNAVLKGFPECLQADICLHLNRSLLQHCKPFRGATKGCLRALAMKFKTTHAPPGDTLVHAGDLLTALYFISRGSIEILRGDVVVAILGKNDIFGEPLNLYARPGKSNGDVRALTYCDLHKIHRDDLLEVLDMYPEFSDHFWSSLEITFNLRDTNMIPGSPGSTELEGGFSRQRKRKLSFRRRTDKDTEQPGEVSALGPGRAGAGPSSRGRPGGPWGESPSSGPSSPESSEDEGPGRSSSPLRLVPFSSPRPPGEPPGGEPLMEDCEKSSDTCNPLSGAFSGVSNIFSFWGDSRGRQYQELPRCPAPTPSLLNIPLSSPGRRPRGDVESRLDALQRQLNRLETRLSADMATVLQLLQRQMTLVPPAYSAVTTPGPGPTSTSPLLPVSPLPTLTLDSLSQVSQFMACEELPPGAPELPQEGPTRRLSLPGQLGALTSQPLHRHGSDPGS
T2 sequence (O14786 22-923): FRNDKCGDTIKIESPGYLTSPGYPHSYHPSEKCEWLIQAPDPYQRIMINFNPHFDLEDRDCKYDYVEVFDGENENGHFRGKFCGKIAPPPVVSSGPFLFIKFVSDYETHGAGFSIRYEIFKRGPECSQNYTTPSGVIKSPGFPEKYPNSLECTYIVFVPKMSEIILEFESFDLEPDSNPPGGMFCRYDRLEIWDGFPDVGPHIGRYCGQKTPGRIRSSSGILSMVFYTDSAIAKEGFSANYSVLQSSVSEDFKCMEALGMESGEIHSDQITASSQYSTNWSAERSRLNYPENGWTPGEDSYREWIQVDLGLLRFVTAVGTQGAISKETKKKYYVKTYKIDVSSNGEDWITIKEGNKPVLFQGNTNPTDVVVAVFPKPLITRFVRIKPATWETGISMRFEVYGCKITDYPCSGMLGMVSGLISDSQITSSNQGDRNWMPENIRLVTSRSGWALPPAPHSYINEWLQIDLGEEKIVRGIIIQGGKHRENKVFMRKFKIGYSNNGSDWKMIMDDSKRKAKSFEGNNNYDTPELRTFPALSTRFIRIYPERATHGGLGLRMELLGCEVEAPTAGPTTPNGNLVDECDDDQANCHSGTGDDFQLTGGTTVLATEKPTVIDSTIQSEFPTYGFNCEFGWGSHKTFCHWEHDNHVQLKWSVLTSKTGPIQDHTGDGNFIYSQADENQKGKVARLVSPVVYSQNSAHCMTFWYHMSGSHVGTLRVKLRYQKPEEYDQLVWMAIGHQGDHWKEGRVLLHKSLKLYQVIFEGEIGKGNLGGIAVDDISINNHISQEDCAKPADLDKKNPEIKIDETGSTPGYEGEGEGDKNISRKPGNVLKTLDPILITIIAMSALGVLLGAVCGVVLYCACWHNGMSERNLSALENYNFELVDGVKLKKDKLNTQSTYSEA

**Q.** Which IC50 at 4 h [1] does the source give for `CC[C@H](C)[C@H](NC(=O)[C@H](CCC(=O)O)NC(=O)[C@H](CS)NC(=O)[C@H](C)N)C(=O)N[C@H](CC(=O)O)C(=O)N[C@H](C(=O)N[C@@H](CO)C(=O)N[C@@H](CC(=O)O)C(=O)N[C@@H](C)C(=O)N[C@@H](Cc1ccccc1)C(=O)N[C@@H](CCCCN)C(=O)N[C@@H](CCCNC(=N)N)C(=O)N[C@@H](Cc1ccccc1)C(=O)N[C@@H](Cc1ccccc1)C(=O)N[C@@H](CCCNC(=N)N)C(=O)N[C@@H](C)C(=O)N[C@@H](C)C(=O)N[C@@H](CCCNC(=N)N)C(=O)O)C(C)C` [Peptide-5] (H-ACEI[dD]VSDAFKRFFRAAR-OH; N-terminus and C-terminus assumed) here?
**A.** Its IC50 at 4 h is > 50000 nM.

**Q.** What about the Kd [2] of the same molecule?
**A.** Its Kd is 43 nM.

**Q.** Which “NRP1 (Kd)” value ([3]; MST, 50 nM labeled protein, 100 mM potassium phosphate buffer pH 7.0) does the source give for `CSCC[C@H](NC(=O)[C@@H](NC(=O)[C@@H](N)CC(C)C)C(C)C)C(=O)NCC(=O)N[C@@H](CC(C)C)C(=O)N[C@@H](CC(N)=O)C(=O)N[C@H](C(=O)N[C@@H](Cc1c[nH]c2ccccc12)C(=O)N[C@@H](CC(C)C)C(=O)N[C@@H](CCCNC(=N)N)C(=O)N[C@@H](Cc1ccc(O)cc1)C(=O)N[C@@H](CO)C(=O)N[C@@H](CCCCN)C(=O)NCCC(=O)N[C@@H](CCCCNC(=O)CCCC[C@@H]1SC[C@@H]2NC(=O)N[C@@H]21)C(N)=O)C(C)C` [PP-4] (H-LVMGLNVWLRYSK[βAla]K(Biotin)-NH2; N-terminus assumed) here?
**A.** Its value is “no binding affinity”.

**Q.** And the Kd [2]?
**A.** Its Kd is 79 nM.

**Q.** Which IC50 at 4 h [1] does the source give for `CC(C)C[C@H](NC(=O)[C@H](C)NC(=O)[C@@H](NC(=O)[C@@H](N)CO)[C@@H](C)O)C(=O)N[C@H](CC(=O)O)C(=O)N[C@H](C(=O)N[C@@H](CO)C(=O)N[C@@H](CC(=O)O)C(=O)N[C@@H](C)C(=O)N[C@@H](Cc1ccccc1)C(=O)N[C@@H](Cc1ccc(O)cc1)C(=O)N[C@@H](CCCNC(=N)N)C(=O)N[C@@H](Cc1ccccc1)C(=O)N[C@@H](Cc1ccccc1)C(=O)N[C@@H](CCCNC(=N)N)C(=O)N[C@@H](CCCCN)C(=O)N[C@@H](C)C(=O)N[C@@H](CCCNC(=N)N)C(=O)O)C(C)C` [Peptide-2] (H-STAL[dD]VSDAFYRFFRKAR-OH; N-terminus and C-terminus assumed) here?
**A.** The IC50 at 4 h was > 50000 nM.

**Q.** What about the Kd [2] of the same molecule?
**A.** Its Kd is 56 nM.

**Q.** What does the source list for `CC(C)C[C@H](NC(=O)[C@H](CCC(=O)O)NC(=O)[C@H](C)NC(=O)[C@@H](N)CCC(=O)O)C(=O)N[C@H](CC(=O)O)C(=O)N[C@H](C(=O)N[C@@H](CO)C(=O)N[C@@H](CC(=O)O)C(=O)N[C@@H](C)C(=O)N[C@@H](Cc1ccccc1)C(=O)N[C@@H](Cc1ccc(O)cc1)C(=O)N[C@@H](CCCNC(=N)N)C(=O)N[C@@H](Cc1ccccc1)C(=O)N[C@@H](Cc1ccccc1)C(=O)N[C@@H](CCCNC(=N)N)C(=O)N[C@@H](CCCNC(=N)N)C(=O)N[C@@H](C)C(=O)N[C@@H](CCCNC(=N)N)C(=O)O)C(C)C` [Peptide-1] (H-EAEL[dD]VSDAFYRFFRRAR-OH; N-terminus and C-terminus assumed)?
**A.** IC50 at 4 h [1]: > 50000 nM; inhibition rate against SARS-CoV-2 Omicron XBB.1.5 infection [4]: approximately 80%; fold higher affinity for NRP1 compared with the single-target peptide ([3]; versus NTP): ~4.4 fold; alanine aminotransferase (ALT) level [5]: did not change significantly; aspartate aminotransferase (AST) level [5]: did not change significantly; blood urea nitrogen (BUN) level [5]: did not change significantly; creatinine (CRE) level [5]: did not change significantly; Kd [2]: 19 nM; fold higher affinity for RBD compared with the single-target peptide ([2]; versus PP-4): approximately 4.2 fold; cytotoxicity to A549 cells [6]: no obvious toxicity; viral load in the lungs of mice vs control [7]: significantly reduced

**Q.** Which Kd [3] does the source give for `N=C(N)NCCC[C@@H](N)C(=O)N1CCC[C@@H]1C(=O)N1CCC[C@@H]1C(=O)N[C@H](CCCNC(=N)N)C(=O)N[C@H](CCC(=O)O)C(=O)NCC(=O)N[C@H](CCCNC(=N)N)C(=O)O` [NTP, rppregr] (H-[dR][dP][dP][dR][dE]G[dR]-OH) here?
**A.** Its Kd is 141 nM.

**Q.** Which IC50 at 4 h [1] does the source give for `CC[C@H](C)[C@H](NC(=O)[C@@H](N)CC(N)=O)C(=O)N[C@@H](CCC(=O)O)C(=O)N[C@@H](CC(C)C)C(=O)N[C@H](CC(=O)O)C(=O)N[C@@H](C)C(=O)N[C@@H](CO)C(=O)N[C@@H](CC(=O)O)C(=O)N[C@@H](C)C(=O)N[C@@H](Cc1ccccc1)C(=O)N[C@H](C(=O)N[C@@H](CCCNC(=N)N)C(=O)N[C@@H](Cc1ccccc1)C(=O)N[C@@H](Cc1ccccc1)C(=O)N[C@@H](CCCNC(=N)N)C(=O)N[C@@H](CCC(N)=O)C(=O)N[C@@H](C)C(=O)N[C@@H](CCCNC(=N)N)C(=O)O)C(C)C` [Peptide-4] (H-NIEL[dD]ASDAFVRFFRQAR-OH; N-terminus and C-terminus assumed) here?
**A.** The IC50 at 4 h was > 50000 nM.

**Q.** And the Kd [2]?
**A.** The Kd was 69 nM.

**Q.** Which IC50 [1] does the source give for ELELVVSTAFYRFFRHAR [Peptide-3] here?
**A.** Its IC50 is > 50000 nM.

**Q.** What about the Kd [3] of the same molecule?
**A.** Its Kd is 81 nM.
